Experimental data taken from patent US20240075087A1, “COMPOSITIONS AND METHODS COMPRISING HEMP EXTRACT FOR THE TREATMENT OF ANIMALS IN NEED” (Portland Technology Holdings LLC, priority 2021, published 2024).

Tests used:
CYP2B11 = target: T1, CYP2B11 (Canis lupus familiaris, UniProt P24460); experiment: CYP2B11 activity inhibition in pooled dog liver microsomes
T1 sequence (P24460 1-494): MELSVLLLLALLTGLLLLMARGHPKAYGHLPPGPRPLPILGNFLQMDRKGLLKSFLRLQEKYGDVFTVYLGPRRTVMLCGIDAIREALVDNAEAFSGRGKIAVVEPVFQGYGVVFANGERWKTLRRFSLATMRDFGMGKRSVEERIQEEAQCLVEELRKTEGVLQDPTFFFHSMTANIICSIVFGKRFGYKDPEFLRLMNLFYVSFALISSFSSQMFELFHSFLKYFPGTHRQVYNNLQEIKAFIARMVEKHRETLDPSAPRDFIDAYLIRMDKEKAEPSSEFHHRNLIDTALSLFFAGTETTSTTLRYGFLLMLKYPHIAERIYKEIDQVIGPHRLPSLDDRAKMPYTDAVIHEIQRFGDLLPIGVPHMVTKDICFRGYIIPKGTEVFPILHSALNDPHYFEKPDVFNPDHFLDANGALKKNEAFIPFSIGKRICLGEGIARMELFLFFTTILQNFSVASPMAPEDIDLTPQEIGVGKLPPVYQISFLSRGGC
Method: (§1) Inhibition potency (i.e. IC50) is determined by measuring the decrement in metabolism of P450-specific marker activities in pooled dog liver microsomes with increasing concentrations of CBD, CBDA, and hemp extracts. P450-specific markers include bupropion 6-hydroxylation (CYP2B11), dextromethorphan 0-demethylation (CYP2D15) and omeprazole sulfoxidation (CYP3A12). IC50 values are determined both with and without preincubation of liver microsomes with potential inhibitor to evaluate whether there is mechanism-based time-dependent inhibition.
(§2) The following parameters are assessed: (1) the rates of CBD and CBDA metabolism by dog liver microsomes and by 11 recombinant canine P450 enzymes; (2) the predicted percent contribution of each P450 to total CBD and CBDA metabolism in dog liver; and (3) IC50 values for inhibition of CYP2B11, CYP2D15 and CYP3A12 metabolism in dog liver, both with and without inhibitor preincubation.
(§3) FIGS. 13-15 show activity assays for CYP3A12 (FIGS. 13A and 13B), CYP2B11 (FIGS. 14A and 14B), and CYP2D15 (FIGS. 15A and 15B). Assays using either no preincubation (FIGS. 13A, 14A, and 15A) or 20 minutes of preincubation (FIGS. 13B, 14B, and 15B) were performed.

[1] = tested on: canine primary dermal fibroblasts (CDF); experiment: Trypan blue exclusion assay, dermal fibroblasts; assay type: cell-based; settings: 48 hours, vehicle control 16±3%
Method: The trypan blue exclusion assay is performed on canine primary dermal fibroblasts (CDF) because of the slow rate of proliferation and low metabolic activity of these normal canine cells, precluding productive MTT assays. The effects of CBD treatments are compared with the results obtained on the 17-71, CMT12 and D17 cell lines for comparative purposes. For the CDF cells, applied cell extracellular matrix (ABM) is applied overnight to 24-well tissue culture-treated plates (Applied Biological Materials [ABM], Richmond, BC, Canada). For all cell lines, cells are plated at a density of 5×10^3 cells per well and incubated until 60% confluent before treatment with methanol vehicle control, 3.75, 7.5, and 15 μg/mL of CBD to cells for 48 hours. Cells are then trypsinized, collected and centrifuged at 1900 g for 10 minutes. With the exception of the 17-71 cell line, cells are detached with Accumax (Invitrogen, Carlsbad, California). The cell pellet is resuspended in 0.1% trypan blue (Sigma Aldrich, St Louis, Missouri) in PBS solution, loaded on a Cell Countess disposable cell counting slide with automatic counting of all positively stained cells in the Countess II Cell Counter under identical settings for each cell line (Invitrogen; ThermoFisher Scientific, Carlsbad, California) using the same parameters for each cell line. All treatments are performed in triplicate and the percent of viable cells are averaged.

17-71 cell line = experiment: Annexin V-FITC apoptosis assay, 17-71; assay type: cell-based, canine; settings: 15 μg/mL CBD, VC 10.1±0.4%
Method: Apoptosis after 4 and 8 hours treatment is measured using Annexin-V staining (Invitrogen Annexin V-FITC staining kit, Carlsbad, California). Briefly, cells are detached with Accumax (Innovative Cell Technologies, San Diego, California), collected and centrifuged for 10 m at 1000 g at 4° C. The pellet is washed once with PBS before resuspension in Annexin Binding Buffer (ABB; 10 mM HEPES, 140 mM NaCl, 2.5 mM CaCl2, pH 7.4) at a density of approximately 1×10^6 cell/mL. […] After the incubation, ABB is added to the cell suspension and kept on ice until fluorescence is measured with the BD FACScalibur flow cytometer using an argon laser (BD Biosciences, Ashland, Oregon). Ten thousand events are collected per sample. Analysis is performed with the FlowJo software (Version 10.7.1. Becton, Dickinson, Ashland, Oregon) by first gating based on the forward- and side-scatter characteristics for each cell line followed by Annexin V-FITC positive cells. Negative fluorescence controls are unstained cells. Three independent replicates are examined for each treatment.

CYP3A12 = CYP3A12 (Canis lupus familiaris, UniProt P24463); experiment: CYP3A12 activity inhibition in pooled dog liver microsomes
Method: as §1, §2, §3

canine P-glycoprotein = target: T2, canine P-glycoprotein (Canis lupus familiaris, UniProt C0KKU9); experiment: P-glycoprotein competitive transport assay (rhodamine 123, MDCK PGP cells); assay type: in vitro ADME; settings: highest concentration tested, 1,000 ng/mL
T2 construct: host or cells: MDCK PGP cells (canine P-gp expressing cell line)
Method: In this second study, a competitive P-gp substrate assay incorporating a canine P-gp expressing cell line is used to assess each test compound's ability to compete with the P-gp substrate rhodamine 123. Each concentration is tested on 3 separate days with same-day duplicates. Positive controls and negative controls are included in each run.
Results for each concentration of test compound evaluated are reported as non-P-gp substrate, weak P-gp substrate, moderate P-gp substrate, or strong P-gp substrate. The concentrations for CBD and CBDA are as follows: 10 ng/mL, 100 ng/mL and 1,000 ng/mL.
A competitive P-gp substrate assay using a canine P-gp expressing cell line was used to assess CBDA and/or CBD as a substrate for canine P-glycoprotein.

Sequence of CYP3A12 (P24463 whole entry): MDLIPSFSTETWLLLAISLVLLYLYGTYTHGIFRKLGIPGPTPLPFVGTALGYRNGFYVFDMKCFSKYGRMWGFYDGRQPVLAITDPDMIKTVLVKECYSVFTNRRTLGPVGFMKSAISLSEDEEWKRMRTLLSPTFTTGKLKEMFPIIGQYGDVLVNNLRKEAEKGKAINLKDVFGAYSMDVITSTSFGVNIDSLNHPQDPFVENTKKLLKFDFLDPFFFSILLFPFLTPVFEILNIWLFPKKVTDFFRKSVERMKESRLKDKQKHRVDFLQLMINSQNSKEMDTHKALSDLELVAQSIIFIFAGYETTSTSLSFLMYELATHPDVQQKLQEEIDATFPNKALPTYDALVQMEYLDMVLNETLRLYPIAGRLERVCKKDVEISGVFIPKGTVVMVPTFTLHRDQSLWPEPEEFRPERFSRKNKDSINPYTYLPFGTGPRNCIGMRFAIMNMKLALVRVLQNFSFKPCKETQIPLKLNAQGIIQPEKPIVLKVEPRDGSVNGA
T2 sequence (C0KKU9 1-1281): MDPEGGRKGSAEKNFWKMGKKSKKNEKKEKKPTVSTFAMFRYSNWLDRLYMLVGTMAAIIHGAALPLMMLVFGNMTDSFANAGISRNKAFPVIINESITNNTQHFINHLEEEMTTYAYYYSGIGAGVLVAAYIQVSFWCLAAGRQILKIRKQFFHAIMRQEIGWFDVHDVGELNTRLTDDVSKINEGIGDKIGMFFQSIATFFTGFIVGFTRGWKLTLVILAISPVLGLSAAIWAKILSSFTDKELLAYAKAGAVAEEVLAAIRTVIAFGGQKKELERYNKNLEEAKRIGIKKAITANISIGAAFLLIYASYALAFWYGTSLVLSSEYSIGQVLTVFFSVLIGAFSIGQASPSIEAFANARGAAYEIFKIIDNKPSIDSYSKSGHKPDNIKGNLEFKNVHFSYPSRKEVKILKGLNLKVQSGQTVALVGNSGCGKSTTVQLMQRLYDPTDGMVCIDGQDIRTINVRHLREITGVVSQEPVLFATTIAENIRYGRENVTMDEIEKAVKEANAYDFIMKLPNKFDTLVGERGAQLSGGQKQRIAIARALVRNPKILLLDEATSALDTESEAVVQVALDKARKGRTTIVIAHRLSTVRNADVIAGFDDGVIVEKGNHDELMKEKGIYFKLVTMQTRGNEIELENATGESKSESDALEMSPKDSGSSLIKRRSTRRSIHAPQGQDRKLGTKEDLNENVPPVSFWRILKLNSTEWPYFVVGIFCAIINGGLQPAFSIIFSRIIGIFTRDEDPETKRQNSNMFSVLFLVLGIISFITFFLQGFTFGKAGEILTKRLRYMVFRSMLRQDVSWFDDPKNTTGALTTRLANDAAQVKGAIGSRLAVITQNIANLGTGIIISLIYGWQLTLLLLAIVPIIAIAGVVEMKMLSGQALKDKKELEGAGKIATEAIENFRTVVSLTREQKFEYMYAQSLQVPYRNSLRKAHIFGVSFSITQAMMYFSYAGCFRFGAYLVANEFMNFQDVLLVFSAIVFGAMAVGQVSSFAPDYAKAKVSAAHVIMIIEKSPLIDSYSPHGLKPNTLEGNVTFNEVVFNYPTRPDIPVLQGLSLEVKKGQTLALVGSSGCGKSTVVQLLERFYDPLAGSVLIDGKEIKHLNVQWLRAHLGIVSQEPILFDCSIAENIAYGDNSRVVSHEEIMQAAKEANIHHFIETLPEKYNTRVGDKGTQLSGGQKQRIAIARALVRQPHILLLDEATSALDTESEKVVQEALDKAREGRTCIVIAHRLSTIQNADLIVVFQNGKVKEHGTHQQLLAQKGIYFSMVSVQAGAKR

C=C(C)[C@@H]1CCC(C)=C[C@H]1c1c(O)cc(CCCCC)cc1O [CBD, cannabidiol]
IC50 (CYP2B11): < 1 µM
time-dependent inhibition (TDI) (CYP2B11; CYP2B11, no preincubation vs 20 min preincubation, 10 μM): showed time-dependent inhibition (TDI)
percent trypan blue positive cells ([1]; 3.75 μg/mL CBD): 32±5%
percent trypan blue positive cells ([1]; 7.5 μg/mL CBD): 58±7%
percent trypan blue positive cells ([1]; 15 μg/mL CBD): 77±12%
Annexin V positive staining cells (17-71 cell line; 4 hours): 31.0±10.8%
Annexin V positive staining cells (17-71 cell line; 8 hours): 79.0±6.1%
IC50 (CYP3A12): < 1 µM
time-dependent inhibition (TDI) (CYP3A12; CYP3A12, no preincubation vs 20 min preincubation, 10 μM): showed time-dependent inhibition (TDI)
P-gp substrate classification (canine P-glycoprotein): not a substrate for canine PGP
